Active and inactive are the calls of the source. No cut-off for these calls is given here.
Experiments:
[1] = molecular target: Genome polyprotein (dengue virus type 2) (UniProt P29990); assay: (§1) Inhibition of dengue virus serotype 2 His-tagged NS2B cofactor domain-NS3 protease expressed in Escherichia coli at 50 uM using 2-Abz-Nle-Lys-Arg-Arg-Ser-(3-NO2)-Tyr-NH2 as substrate preincubated with enzyme for 15 mins followed by substrate addition measured for every 1 sec for 15 mins by fluorescence plate reader based HPLC analysis relative to control
[2] = molecular target: Genome polyprotein (West Nile virus) (UniProt P06935); assay: as §1, with “West Nile” for “dengue”, “virus” for “virus serotype 2”, “2-Abz-Gly-Leu-Lys-Arg-Gly-Gly-(3-NO2)-Tyr-NH2” for “2-Abz-Nle-Lys-Arg-Arg-Ser-(3-NO2)-Tyr-NH2”, “microplate” for “plate”
Prothrombin [3] = molecular target: T1, Prothrombin (Homo sapiens, UniProt P00734); assay: Inhibition of thrombin (unknown origin) at 25 uM using Boc-Val-Pro-Arg-AMC as substrate preincubated with enzyme for 15 mins followed by addition of substrate by fluorescence plate reader analysis relative to control
Trypsin [4] = molecular target: T2, Trypsin (Homo sapiens, UniProt P07477+P07478+P35030); assay: Inhibition of trypsin (unknown origin) at 50 uM using Boc-Val-Pro-Arg-AMC as substrate preincubated with enzyme for 15 mins followed by addition of substrate by fluorescence plate reader analysis relative to control; type: protein assay
[5] = molecular target: Genome polyprotein (dengue virus type 2) (UniProt P29990); assay: as §1, with “1 mM” for “50 uM”
[6] = molecular target: Genome polyprotein (West Nile virus) (UniProt P06935); assay: Inhibition of West Nile virus His-tagged NS2B cofactor domain-NS3 protease expressed in Escherichia coli at 1 mM using 2-Abz-Gly-Leu-Lys-Arg-Gly-Gly-(3-NO2)-Tyr-NH2 as substrate preincubated with enzyme for 15 mins followed by substrate addition measured for every 1 sec for 15 mins by fluorescence microplate reader based HPLC analysis relative to control
Prothrombin [7] = molecular target: T1, Prothrombin; assay: Inhibition of thrombin (unknown origin) at 500 uM using Boc-Val-Pro-Arg-AMC as substrate preincubated with enzyme for 15 mins followed by addition of substrate by fluorescence plate reader analysis relative to control
Trypsin [8] = molecular target: T2, Trypsin; assay: Inhibition of trypsin (unknown origin) at 1 mM using Boc-Val-Pro-Arg-AMC as substrate preincubated with enzyme for 15 mins followed by addition of substrate by fluorescence plate reader analysis relative to control; type: protein assay
Trypsin [9] = molecular target: T2, Trypsin; assay: Inhibition of trypsin (unknown origin) using Boc-Val-Pro-Arg-AMC as substrate preincubated with enzyme for 15 mins followed by addition of substrate by fluorescence plate reader analysis; type: protein assay
Genome polyprotein = Genome polyprotein (dengue virus type 2, UniProt P29990); assay: as §1, with “coli” for “coli at 50 uM”, “analysis” for “analysis relative to control”
Prothrombin [10] = molecular target: T1, Prothrombin; assay: Inhibition of thrombin (unknown origin) using Boc-Val-Pro-Arg-AMC as substrate preincubated with enzyme for 15 mins followed by addition of substrate by fluorescence plate reader analysis
[11] = molecular target: Genome polyprotein (dengue virus type 2) (UniProt P29990); assay: as §1, with “Time-dependent inhibition of dengue” for “Inhibition of dengue”, “enzyme for 20 to 40 mins followed” for “enzyme for 15 mins followed”, “HPLC analysis” for “HPLC analysis relative to control”
[12] = molecular target: Genome polyprotein (dengue virus type 2) (UniProt P29990); assay: Inhibition of dengue virus serotype 2 His-tagged NS2B catalytic domain-NS3 protease expressed in Escherichia coli at 100 uM using 2-Abz-Nle-Lys-Arg-Arg-Ser-(3-NO2)-Tyr-NH2 as substrate preincubated with enzyme for 1 hr followed by substrate addition measured for every 1 sec for 15 mins by fluorescence plate reader based HPLC analysis relative to control
[13] = molecular target: Genome polyprotein (dengue virus type 2) (UniProt P29990); assay: Reversible covalent binding affinity at dengue virus serotype 2 His-tagged NS2B cofactor domain-NS3 protease expressed in Escherichia coli assessed as acyl-enzyme adduct formation at 100 uM incubated for 5 to 30 mins by ESI-MS analysis
[14] = molecular target: Genome polyprotein (dengue virus type 2) (UniProt P29990); assay: Reversible covalent binding affinity at dengue virus serotype 2 His-tagged NS2B cofactor domain-NS3 protease expressed in Escherichia coli assessed as acyl-enzyme adduct formation at 100 uM incubated for 20 hrs by ESI-MS analysis
[15] = Stability of compound in TRIS buffer assessed as half life at pH 9; type: physicochemical
[16] = Stability of compound in phosphate buffer assessed as half life at pH 11; type: physicochemical
[17] = Stability of compound in phosphate buffer at pH 9; type: physicochemical
[18] = Stability of compound in TRIS buffer at pH 7.5; type: physicochemical
[19] = molecular target: Genome polyprotein (dengue virus type 2) (UniProt P29990); assay: Reversible covalent inhibition of dengue virus serotype 2 His-tagged NS2B catalytic domain-NS3 protease expressed in Escherichia coli using 2-Abz-Nle-Lys-Arg-Arg-Ser-(3-NO2)-Tyr-NH2 as substrate preincubated initially at 100 uM with enzyme for 1 hr followed by dilution with assay buffer to achieve compound concentration of 3.33 uM prior to substrate addition measured immediately after dilution by fluorescence plate reader based HPLC analysis
[20] = molecular target: Genome polyprotein (dengue virus type 2) (UniProt P29990); assay: Reversible covalent inhibition of dengue virus serotype 2 His-tagged NS2B catalytic domain-NS3 protease expressed in Escherichia coli using 2-Abz-Nle-Lys-Arg-Arg-Ser-(3-NO2)-Tyr-NH2 as substrate preincubated initially at 100 uM with enzyme for 1 hr followed by dilution with assay buffer to achieve compound concentration of 3.33 uM prior to substrate addition measured after dilution over time by fluorescence plate reader based HPLC analysis
[21] = molecular target: Genome polyprotein (dengue virus type 2) (UniProt P29990); assay: Reversible covalent inhibition of dengue virus serotype 2 His-tagged NS2B catalytic domain-NS3 protease expressed in Escherichia coli at 100 uM using 2-Abz-Nle-Lys-Arg-Arg-Ser-(3-NO2)-Tyr-NH2 as substrate preincubated with enzyme for 1 hr followed by dilution prior to substrate addition measured at 120 mins after dilution by fluorescence plate reader based HPLC analysis
dengue virus type 2 = assay: Reversible covalent binding affinity at dengue virus serotype 2 His-tagged NS2B cofactor domain-NS3 protease S135A mutant expressed in Escherichia coli assessed as acyl-enzyme adduct formation at 100 uM incubated for 24 hrs by ESI-MS analysis
[22] = molecular target: Genome polyprotein (dengue virus type 2) (UniProt P29990); assay: Time-dependent inhibition of dengue virus serotype 2 His-tagged NS2B cofactor domain-NS3 protease expressed in Escherichia coli at 200 uM using 2-Abz-Nle-Lys-Arg-Arg-Ser-(3-NO2)-Tyr-NH2 as substrate preincubated with enzyme for 20 to 40 mins followed by substrate addition measured for every 1 sec for 15 mins by fluorescence plate reader based HPLC analysis
[23] = molecular target: Genome polyprotein (dengue virus type 2) (UniProt P29990); assay: Reversible covalent binding affinity at dengue virus serotype 2 His-tagged NS2B cofactor domain-NS3 protease expressed in Escherichia coli assessed as acyl-enzyme adduct formation at 100 uM incubated for 5 to 24 hrs by ESI-MS analysis
[24] = Stability of compound in TRIS assay buffer at pH 7.5 to 9; type: physicochemical
[25] = Stability of compound in phosphate buffer at pH 7.5 to 11; type: physicochemical
[26] = molecular target: Genome polyprotein (dengue virus type 2) (UniProt P29990); assay: Reversible covalent binding affinity at dengue virus serotype 2 His-tagged NS2B cofactor domain-NS3 protease expressed in Escherichia coli assessed as acyl-enzyme adduct formation at 100 uM incubated for 2 hrs by ESI-MS analysis
[27] = molecular target: Genome polyprotein (dengue virus type 2) (UniProt P29990); assay: Reversible covalent binding affinity at dengue virus serotype 2 His-tagged NS2B cofactor domain-NS3 protease expressed in Escherichia coli assessed as acyl-enzyme adduct formation at 100 uM incubated for 24 hrs by ESI-MS analysis

Genome polyprotein (West Nile virus), sequence (P06935 whole entry, the tested form may be a part): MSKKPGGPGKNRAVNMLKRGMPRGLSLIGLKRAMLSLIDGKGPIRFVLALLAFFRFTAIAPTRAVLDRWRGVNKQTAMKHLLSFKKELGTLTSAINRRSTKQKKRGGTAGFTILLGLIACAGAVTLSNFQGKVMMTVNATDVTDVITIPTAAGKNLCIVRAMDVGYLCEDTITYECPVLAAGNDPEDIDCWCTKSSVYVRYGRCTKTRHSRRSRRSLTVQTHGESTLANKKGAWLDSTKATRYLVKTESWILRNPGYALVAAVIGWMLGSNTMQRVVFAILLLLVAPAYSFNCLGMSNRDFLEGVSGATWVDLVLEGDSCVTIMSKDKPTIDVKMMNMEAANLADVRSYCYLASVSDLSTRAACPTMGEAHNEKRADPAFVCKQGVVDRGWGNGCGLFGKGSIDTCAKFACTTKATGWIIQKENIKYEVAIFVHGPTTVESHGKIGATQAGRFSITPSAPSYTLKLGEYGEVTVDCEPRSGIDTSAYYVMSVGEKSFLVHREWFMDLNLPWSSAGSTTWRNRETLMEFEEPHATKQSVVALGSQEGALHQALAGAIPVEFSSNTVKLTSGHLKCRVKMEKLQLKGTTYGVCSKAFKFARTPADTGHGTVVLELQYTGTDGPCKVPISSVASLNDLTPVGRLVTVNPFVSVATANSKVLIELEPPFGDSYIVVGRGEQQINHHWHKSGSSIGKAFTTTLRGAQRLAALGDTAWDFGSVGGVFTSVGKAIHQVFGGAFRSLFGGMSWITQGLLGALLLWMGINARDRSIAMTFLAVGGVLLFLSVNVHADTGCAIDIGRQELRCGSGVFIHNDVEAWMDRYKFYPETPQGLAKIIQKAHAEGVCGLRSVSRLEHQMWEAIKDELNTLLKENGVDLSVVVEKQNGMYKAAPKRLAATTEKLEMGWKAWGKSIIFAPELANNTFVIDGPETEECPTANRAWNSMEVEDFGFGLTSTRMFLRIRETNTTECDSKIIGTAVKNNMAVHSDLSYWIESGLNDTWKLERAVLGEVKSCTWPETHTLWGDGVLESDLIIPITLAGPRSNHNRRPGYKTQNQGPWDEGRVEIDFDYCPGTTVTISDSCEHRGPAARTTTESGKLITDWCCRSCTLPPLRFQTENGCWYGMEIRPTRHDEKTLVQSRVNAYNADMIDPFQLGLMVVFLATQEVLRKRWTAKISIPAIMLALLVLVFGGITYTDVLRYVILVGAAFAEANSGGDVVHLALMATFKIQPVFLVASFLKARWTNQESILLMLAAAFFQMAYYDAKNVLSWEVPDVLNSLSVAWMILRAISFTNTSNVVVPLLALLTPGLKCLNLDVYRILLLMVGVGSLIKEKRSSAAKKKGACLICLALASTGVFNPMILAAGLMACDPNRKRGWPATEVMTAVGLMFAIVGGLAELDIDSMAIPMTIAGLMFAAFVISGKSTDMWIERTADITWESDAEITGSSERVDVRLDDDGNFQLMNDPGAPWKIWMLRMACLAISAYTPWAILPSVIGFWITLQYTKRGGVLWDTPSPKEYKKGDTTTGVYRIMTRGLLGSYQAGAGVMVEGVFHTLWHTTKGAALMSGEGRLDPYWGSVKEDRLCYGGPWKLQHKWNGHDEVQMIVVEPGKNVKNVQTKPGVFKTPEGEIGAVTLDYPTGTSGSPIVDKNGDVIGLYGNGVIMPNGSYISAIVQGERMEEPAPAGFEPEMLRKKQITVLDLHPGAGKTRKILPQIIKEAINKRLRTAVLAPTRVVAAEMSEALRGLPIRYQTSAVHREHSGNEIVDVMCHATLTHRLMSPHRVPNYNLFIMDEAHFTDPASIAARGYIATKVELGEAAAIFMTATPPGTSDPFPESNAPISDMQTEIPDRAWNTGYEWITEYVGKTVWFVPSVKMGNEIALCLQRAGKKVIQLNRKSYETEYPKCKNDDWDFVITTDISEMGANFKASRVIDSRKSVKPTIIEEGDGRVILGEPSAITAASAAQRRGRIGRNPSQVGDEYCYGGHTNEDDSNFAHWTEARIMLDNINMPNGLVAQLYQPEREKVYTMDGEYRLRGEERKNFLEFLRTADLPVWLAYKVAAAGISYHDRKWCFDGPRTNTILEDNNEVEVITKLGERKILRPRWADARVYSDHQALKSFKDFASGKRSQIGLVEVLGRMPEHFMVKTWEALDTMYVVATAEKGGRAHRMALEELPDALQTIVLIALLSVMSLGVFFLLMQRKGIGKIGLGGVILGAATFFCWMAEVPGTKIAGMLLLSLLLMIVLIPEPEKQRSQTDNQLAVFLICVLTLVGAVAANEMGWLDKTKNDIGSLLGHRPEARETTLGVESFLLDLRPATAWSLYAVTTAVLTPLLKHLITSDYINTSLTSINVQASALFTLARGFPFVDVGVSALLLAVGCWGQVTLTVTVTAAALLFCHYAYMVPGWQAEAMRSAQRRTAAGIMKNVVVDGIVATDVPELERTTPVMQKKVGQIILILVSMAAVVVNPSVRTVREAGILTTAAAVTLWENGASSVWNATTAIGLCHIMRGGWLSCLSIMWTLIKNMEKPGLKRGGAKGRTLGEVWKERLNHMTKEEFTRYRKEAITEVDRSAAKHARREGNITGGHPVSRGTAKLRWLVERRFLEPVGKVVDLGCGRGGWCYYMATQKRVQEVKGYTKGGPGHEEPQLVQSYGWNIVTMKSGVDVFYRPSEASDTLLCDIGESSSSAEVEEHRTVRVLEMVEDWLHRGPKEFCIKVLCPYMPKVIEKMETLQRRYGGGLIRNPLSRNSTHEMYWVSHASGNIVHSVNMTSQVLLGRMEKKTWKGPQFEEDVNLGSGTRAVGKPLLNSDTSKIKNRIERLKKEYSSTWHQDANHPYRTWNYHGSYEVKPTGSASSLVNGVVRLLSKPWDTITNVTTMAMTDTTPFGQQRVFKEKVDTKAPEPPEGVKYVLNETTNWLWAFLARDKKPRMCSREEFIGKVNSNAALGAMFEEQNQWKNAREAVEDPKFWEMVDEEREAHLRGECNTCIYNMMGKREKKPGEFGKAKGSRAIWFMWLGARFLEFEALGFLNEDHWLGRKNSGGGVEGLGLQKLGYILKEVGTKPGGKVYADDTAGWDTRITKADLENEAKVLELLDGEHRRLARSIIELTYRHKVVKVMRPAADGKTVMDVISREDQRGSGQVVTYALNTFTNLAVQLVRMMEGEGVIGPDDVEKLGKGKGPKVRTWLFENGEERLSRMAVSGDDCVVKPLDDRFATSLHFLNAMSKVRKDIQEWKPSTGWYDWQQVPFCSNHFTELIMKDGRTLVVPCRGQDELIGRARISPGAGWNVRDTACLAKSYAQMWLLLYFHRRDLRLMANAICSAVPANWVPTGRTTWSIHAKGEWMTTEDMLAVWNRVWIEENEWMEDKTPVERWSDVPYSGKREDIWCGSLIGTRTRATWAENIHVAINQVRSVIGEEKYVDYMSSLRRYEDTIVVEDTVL

SMILES | inhibition [1] | inhibition [2] | inhibition (Prothrombin [3]) | inhibition (Trypsin [4]) | inhibition [5] | inhibition [6] | inhibition (Prothrombin [7]) | inhibition (Trypsin [8]) | IC50 (Trypsin [9]) | further results
N=C(N)NCCCC(=O)Oc1ccc(NC(=N)N)cc1 | 4.2% | < 5% | 13.2% | 18.3% |  |  |  |  |  | 
CN(C)C(=O)Oc1cc(NC(=N)N)ccc1C(=O)Nc1ccc(CN)cc1 |  |  |  |  | 74.4% | 73.3% | 12.4% | 43.7% |  | 
N=C(N)NCCCCOC(=O)c1ccc(NC(=N)N)cc1 | 49% | 17.1% | 27.3% | 84% |  |  |  |  | 8.27 µM | 
N=C(N)NCCCCC(=O)Oc1ccc(NC(=N)N)cc1 | 4.6% | < 5% | 72.5% | 65.9% |  |  |  |  |  | 
N=C(N)Nc1ccc(OC(=O)c2ccc(NC(=N)N)cc2)cc1 | 98.1% | 29.8% | 99% | 100% |  |  |  |  | 0.00135 µM | IC50 (Genome polyprotein): 14.4 µM; IC50 (Prothrombin [10]): 4.08 µM; TDI [11]: Active; inhibition [12]: 100%; Activity [13]: Active; Activity [14]: inactive; half-life [15]: 16.8 min; half-life [16]: 17.8 min; Stability [17]: Stable; Stability [18]: Stable; inhibition [19]: Active; inhibition [20]: inactive; inhibition [21]: inactive; Activity (dengue virus type 2): inactive
N=C(N)Nc1ccc(NC(=O)Oc2ccc(N)cc2)cc1 | 52% | 61.9% | 12.1% | 101% | 52% | 61.9% | 12.1% | 101% | 46.3 µM | TDI [22]: inactive; Activity [23]: inactive
CN(C)C(=O)Oc1cc(NC(=N)N)ccc1NC(=O)c1ccc(NC(=N)N)cc1 |  |  |  |  | 20.2% | 23.9% | 67.8% | 99.2% |  | 
CN(C)C(=O)COC(=O)Cc1ccc(OC(=O)c2ccc(NC(=N)N)cc2)cc1 [CAMOSTAT] | 19.6% | 12.6% | 94% | 100% |  |  |  |  | 0.0035 µM | 
N=C(N)NCCCOC(=O)c1ccc(NC(=N)N)cc1 | 56.8% | < 5% | 22.8% | 78.9% |  |  |  |  | 9.84 µM | Stability [24]: Stable; Stability [25]: Stable
N=C(N)Nc1ccc(NC(=O)c2ccc(NC(=N)N)cc2)cc1 | 23.2% | 17.9% | 23.9% | 87.2% |  |  |  |  |  | TDI [11]: inactive; Stability [24]: Stable; Stability [25]: Stable; Activity [23]: inactive
N=C(N)Nc1ccc(C(=O)Oc2ccc(CN)cc2)cc1 | 40.1% | 36.5% | 92.5% | 101% |  |  |  |  | 0.00156 µM | IC50 (Prothrombin [10]): 0.53 µM; TDI [11]: Active
N=C(N)Nc1ccc(OC(=O)c2ccc(N)cc2)cc1 | 45.4% | < 5% | 76.7% | 101% |  |  |  |  | 0.00278 µM | IC50 (Prothrombin [10]): 17.6 µM; TDI [11]: Active; Activity [26]: inactive; Activity [27]: Active; Activity (dengue virus type 2): inactive
N=C(N)Nc1ccc(C(=O)Oc2cccc(NC(=N)N)c2)cc1 | 51.3% | 17.5% | 100% | 100% |  |  |  |  |  | 
CN(C(=O)Oc1ccc(CN)cc1)c1ccc(N)cc1 |  |  |  |  | 22.9% | 59.3% | 46.9% | 95.6% |  | 
CN(C(=O)Oc1ccc(N)cc1)c1ccc(N)cc1 |  |  |  |  | 29.8% | 68% | 72.7% | 95.9% |  | 
CN(C(=O)Oc1ccc(CN)cc1)c1ccc(CN)cc1 |  |  |  |  | 31.3% | 62.9% | 12.2% | 43.9% |  | 
N=C(N)NCc1ccc(NC(=O)Oc2ccc(N)cc2)cc1 |  |  |  |  | 60.8% | 68.8% | 44.4% | 98.4% |  | 
CN(C)C(=O)Oc1ccc(NC(=N)N)cc1C(=O)Nc1ccc(CN)cc1 |  |  |  |  | 56% | 76.1% | 24.3% | 19.3% |  | 
N=C(N)Nc1ccc(C(=O)Oc2ccc(N)cc2)cc1 | 8.8% | < 5% | 97.1% | 102% |  |  |  |  | 0.028 µM | IC50 (Prothrombin [10]): 0.8 µM; Stability [24]: Stable; Stability [25]: Stable
N=C(N)Nc1ccc(C(=O)Nc2cccc(NC(=N)N)c2)cc1 | 36.8% | < 5% | 16.4% | 94.6% |  |  |  |  | 23.9 µM | 
Nc1ccc(NC(=O)Oc2ccc(N)cc2)cc1 |  |  |  |  | 33.7% | 72.8% | 83.3% | 99.2% |  | 
